Results published in patent US20230085307A1, “PYRIDAZINONE COMPOUND AND HERBICIDE” (NISSAN CHEMICAL CORPORATION, priority 2019, published 2023).

Key:
[1] = tested on: late watergrass; experiment: Test Example 1: herbicidal activity, application before weed generation under submerged conditions (Table 16, symbol A); type: in vivo, late watergrass (Echinochloa oryzicola); conditions: 320 g/ha applied herbicide
In short: (§1)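 Submerged Wagner pots (alluvial soil, 4 cm water) sown with weed seeds and planted with 2.5-leaf rice seedlings; emulsifiable concentrate diluted in water applied to water surface on sowing day. Held in greenhouse at 25-30 °C; injury scored 0-5 by herbicidal rate after three weeks.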

[2] = tested on: Japanese bulrush; experiment: Test Example 1: herbicidal activity, application before weed generation under submerged conditions (Table 16, symbol B); type: in vivo, Japanese bulrush (Schoenoplectus juncoides); conditions: 320 g/ha applied herbicide
In short: as §1

[3] = tested on: oval-leafed pondweed; experiment: Test Example 1: herbicidal activity, application before weed generation under submerged conditions (Table 16, symbol C); type: in vivo, oval-leafed pondweed (Monochoria vaginalis); conditions: 320 g/ha applied herbicide
In short: as §1

[4] = tested on: barnyard grass; experiment: Test Example 3: herbicidal effect by foliage application, Wagner pot (Table 18, symbol H); type: in vivo, barnyard grass (Echinochloa crus-galli); conditions: amount of applied herbicide 320 g/ha
In short: (§2)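 Plants were sown in alluvial soil held under 0.1–0.5 cm standing water and grown 14 days in a greenhouse at 25–30 °C. An emulsifiable formulation, water-diluted to the set dose, was then sprayed onto the foliage, and effects were scored three weeks later using previously defined criteria.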

[5] = tested on: Chinese sprangletop; experiment: Test Example 3: herbicidal effect by foliage application, Wagner pot (Table 18, symbol D); type: in vivo, chinese sprangletop (Leptochloa chinensis); conditions: amount of applied herbicide 320 g/ha
In short: as §2

[6] = tested on: rice flat sedge; experiment: Test Example 3: herbicidal effect by foliage application, Wagner pot (Table 18, symbol E); type: in vivo, rice flat sedge (Cyperus iria); conditions: amount of applied herbicide 320 g/ha
In short: as §2

[7] = tested on: southern crabgrass; experiment: Test Example 4: herbicidal effect by soil treatment (Table 19, symbol F); type: in vivo, southern crabgrass (Digitaria ciliaris); conditions: amount of applied herbicide 320 g/ha
In short: (§3)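 Step 1: sow seeds in sterilized diluvial soil, cover ~1.5 cm. Step 2: spray diluted emulsion onto soil surface at predetermined rate. Step 3: greenhouse, 25–30° C, three weeks. Step 4: grade effect on each plant by earlier criteria.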

[8] = tested on: green foxtail; experiment: Test Example 4: herbicidal effect by soil treatment (Table 19, symbol G); type: in vivo, green foxtail (Setaria viridis); conditions: amount of applied herbicide 320 g/ha
In short: as §3

[9] = tested on: barnyard grass; experiment: Test Example 4: herbicidal effect by soil treatment (Table 19, symbol H); type: in vivo, barnyard grass (Echinochloa crus-galli); conditions: amount of applied herbicide 320 g/ha
In short: as §3

[10] = tested on: wild oat; experiment: Test Example 4: herbicidal effect by soil treatment (Table 19, symbol I); type: in vivo, wild oat (Avena fatua); conditions: amount of applied herbicide 320 g/ha
In short: as §3

[11] = tested on: blackgrass; experiment: Test Example 4: herbicidal effect by soil treatment (Table 19, symbol J); type: in vivo, blackgrass (Alopecurus myosuroides); conditions: amount of applied herbicide 320 g/ha
In short: as §3

[12] = tested on: Italian ryegrass; experiment: Test Example 4: herbicidal effect by soil treatment (Table 19, symbol K); type: in vivo, Italian ryegrass (Lolium multiflorum); conditions: amount of applied herbicide 320 g/ha
In short: as §3

[13] = tested on: windgrass; experiment: Test Example 4: herbicidal effect by soil treatment (Table 19, symbol L); type: in vivo, windgrass (Apera spica-venti); conditions: amount of applied herbicide 320 g/ha
In short: as §3

[14] = tested on: velvetleaf; experiment: Test Example 4: herbicidal effect by soil treatment (Table 19, symbol M); type: in vivo, velvetleaf (Abutilon theophrasti); conditions: amount of applied herbicide 320 g/ha
In short: as §3

[15] = tested on: redroot pigweed; experiment: Test Example 4: herbicidal effect by soil treatment (Table 19, symbol N); type: in vivo, redroot pigweed (Amaranthus retroflexus); conditions: amount of applied herbicide 320 g/ha
In short: as §3

[16] = tested on: lambsquarters; experiment: Test Example 4: herbicidal effect by soil treatment (Table 19, symbol O); type: in vivo, lambsquarters (Chenopodium album); conditions: amount of applied herbicide 320 g/ha
In short: as §3

[17] = tested on: chickweed; experiment: Test Example 4: herbicidal effect by soil treatment (Table 19, symbol P); type: in vivo, common chickweed (Stellaria media); conditions: amount of applied herbicide 320 g/ha
In short: as §3

[18] = tested on: persian speedwell; experiment: Test Example 4: herbicidal effect by soil treatment (Table 19, symbol R); type: in vivo, Persian speedwell (Veronica persica); conditions: amount of applied herbicide 320 g/ha
In short: as §3

[19] = tested on: southern crabgrass; experiment: Test Example 5: herbicidal effect by foliage application, plastic box (Table 20, symbol F); type: in vivo, southern crabgrass (Digitaria ciliaris); conditions: foliage application, AAH 320 g/ha, evaluated three weeks after application
In short: (§4)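 Foliar spray test: emulsion formulation diluted in water to a set application rate, sprayed onto 14-day-old plants raised in diluvial soil at 25° C to 30° C under glass. Both herbicidal effect and crop effect rated visually three weeks later.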

[20] = tested on: green foxtail; experiment: Test Example 5: herbicidal effect by foliage application, plastic box (Table 20, symbol G); type: in vivo, green foxtail (Setaria viridis); conditions: foliage application, AAH 320 g/ha, evaluated three weeks after application
In short: as §4

[21] = tested on: barnyard grass; experiment: Test Example 5: herbicidal effect by foliage application, plastic box (Table 20, symbol H); type: in vivo, barnyard grass (Echinochloa crus-galli); conditions: foliage application, AAH 320 g/ha, evaluated three weeks after application
In short: as §4

[22] = tested on: wild oat; experiment: Test Example 5: herbicidal effect by foliage application, plastic box (Table 20, symbol I); type: in vivo, wild oat (Avena fatua); conditions: foliage application, AAH 320 g/ha, evaluated three weeks after application
In short: as §4

[23] = tested on: blackgrass; experiment: Test Example 5: herbicidal effect by foliage application, plastic box (Table 20, symbol J); type: in vivo, blackgrass (Alopecurus myosuroides); conditions: foliage application, AAH 320 g/ha, evaluated three weeks after application
In short: as §4

[24] = tested on: Italian ryegrass; experiment: Test Example 5: herbicidal effect by foliage application, plastic box (Table 20, symbol K); type: in vivo, Italian ryegrass (Lolium multiflorum); conditions: foliage application, AAH 320 g/ha, evaluated three weeks after application
In short: as §4

[25] = tested on: windgrass; experiment: Test Example 5: herbicidal effect by foliage application, plastic box (Table 20, symbol L); type: in vivo, windgrass (Apera spica-venti); conditions: foliage application, AAH 320 g/ha, evaluated three weeks after application
In short: as §4

[26] = tested on: velvetleaf; experiment: Test Example 5: herbicidal effect by foliage application, plastic box (Table 20, symbol M); type: in vivo, velvetleaf (Abutilon theophrasti); conditions: foliage application, AAH 320 g/ha, evaluated three weeks after application
In short: as §4

[27] = tested on: redroot pigweed; experiment: Test Example 5: herbicidal effect by foliage application, plastic box (Table 20, symbol N); type: in vivo, redroot pigweed (Amaranthus retroflexus); conditions: foliage application, AAH 320 g/ha, evaluated three weeks after application
In short: as §4

[28] = tested on: lambsquarters; experiment: Test Example 5: herbicidal effect by foliage application, plastic box (Table 20, symbol O); type: in vivo, lambsquarters (Chenopodium album); conditions: foliage application, AAH 320 g/ha, evaluated three weeks after application
In short: as §4

[29] = tested on: chickweed; experiment: Test Example 5: herbicidal effect by foliage application, plastic box (Table 20, symbol P); type: in vivo, common chickweed (Stellaria media); conditions: foliage application, AAH 320 g/ha, evaluated three weeks after application
In short: as §4

[30] = tested on: persian speedwell; experiment: Test Example 5: herbicidal effect by foliage application, plastic box (Table 20, symbol R); type: in vivo, Persian speedwell (Veronica persica); conditions: foliage application, AAH 320 g/ha, evaluated three weeks after application
In short: as §4

Compound: Cc1nn(C)c(=O)c(-c2c(-c3ccc(CSC(C)C)cc3)sc3ccc(F)cc23)c1O [2-321]
- Herbicidal effect on A: late watergrass (grade 0-5) [1]: 3 (Herbicidal rate of 40% or more and less than 70%)
- Herbicidal effect on B: Japanese bulrush (grade 0-5) [2]: 3 (Herbicidal rate of 40% or more and less than 70%)
- Herbicidal effect on C: oval-leafed pondweed (grade 0-5) [3]: 0 (Herbicidal rate of 5% or less (almost no effect))
- herbicidal effect on H: barnyard grass [4]: 5 (Herbicidal rate of 90% or more (almost completely withered))
- herbicidal effect on D: Chinese sprangletop [5]: 3 (Herbicidal rate of 40% or more and less than 70%)
- herbicidal effect on E: rice flat sedge [6]: 5 (Herbicidal rate of 90% or more (almost completely withered))
- herbicidal effect on F: southern crabgrass [7]: 3 (Herbicidal rate of 40% or more and less than 70%)
- herbicidal effect on G: green foxtail [8]: 4 (Herbicidal rate of 70% or more and less than 90%)
- herbicidal effect on H: barnyard grass [9]: 3 (Herbicidal rate of 40% or more and less than 70%)
- herbicidal effect on I: wild oat [10]: 0 (Herbicidal rate of 5% or less (almost no effect))
- herbicidal effect on J: blackgrass [11]: 0 (Herbicidal rate of 5% or less (almost no effect))
- herbicidal effect on K: Italian ryegrass [12]: 0 (Herbicidal rate of 5% or less (almost no effect))
- herbicidal effect on L: windgrass [13]: 0 (Herbicidal rate of 5% or less (almost no effect))
- herbicidal effect on M: velvetleaf [14]: 1 (Herbicidal rate of 5% or more and less than 20%)
- herbicidal effect on N: redroot pigweed [15]: 4 (Herbicidal rate of 70% or more and less than 90%)
- herbicidal effect on O: lambsquarters [16]: 3 (Herbicidal rate of 40% or more and less than 70%)
- herbicidal effect on P: chickweed [17]: 0 (Herbicidal rate of 5% or less (almost no effect))
- herbicidal effect on R: persian speedwell [18]: 5 (Herbicidal rate of 90% or more (almost completely withered))
- F: southern crabgrass, herbicidal effect (criteria 0-5) [19]: 5 (Herbicidal rate of 90% or more (almost completely withered))
- G: green foxtail, herbicidal effect (criteria 0-5) [20]: 5 (Herbicidal rate of 90% or more (almost completely withered))
- H: barnyard grass, herbicidal effect (criteria 0-5) [21]: 4 (Herbicidal rate of 70% or more and less than 90%)
- I: wild oat, herbicidal effect (criteria 0-5) [22]: 3 (Herbicidal rate of 40% or more and less than 70%)
- J: blackgrass, herbicidal effect (criteria 0-5) [23]: 4 (Herbicidal rate of 70% or more and less than 90%)
- K: Italian ryegrass, herbicidal effect (criteria 0-5) [24]: 4 (Herbicidal rate of 70% or more and less than 90%)
- L: windgrass, herbicidal effect (criteria 0-5) [25]: 5 (Herbicidal rate of 90% or more (almost completely withered))
- M: velvetleaf, herbicidal effect (criteria 0-5) [26]: 5 (Herbicidal rate of 90% or more (almost completely withered))
- N: redroot pigweed, herbicidal effect (criteria 0-5) [27]: 5 (Herbicidal rate of 90% or more (almost completely withered))
- O: lambsquarters, herbicidal effect (criteria 0-5) [28]: 5 (Herbicidal rate of 90% or more (almost completely withered))
- P: chickweed, herbicidal effect (criteria 0-5) [29]: 5 (Herbicidal rate of 90% or more (almost completely withered))
- R: persian speedwell, herbicidal effect (criteria 0-5) [30]: 5 (Herbicidal rate of 90% or more (almost completely withered))
